Source: ChEMBL document CHEMBL5291721, “A preclinical secondary pharmacology resource illuminates target-adverse drug reaction associations of marketed drugs” (Nat Commun, 2023)

Tests used:
[1] = biological target: T1, Alpha-2C adrenergic receptor (Homo sapiens, UniProt P18825); type: functional
T1 sequence (P18825 whole entry): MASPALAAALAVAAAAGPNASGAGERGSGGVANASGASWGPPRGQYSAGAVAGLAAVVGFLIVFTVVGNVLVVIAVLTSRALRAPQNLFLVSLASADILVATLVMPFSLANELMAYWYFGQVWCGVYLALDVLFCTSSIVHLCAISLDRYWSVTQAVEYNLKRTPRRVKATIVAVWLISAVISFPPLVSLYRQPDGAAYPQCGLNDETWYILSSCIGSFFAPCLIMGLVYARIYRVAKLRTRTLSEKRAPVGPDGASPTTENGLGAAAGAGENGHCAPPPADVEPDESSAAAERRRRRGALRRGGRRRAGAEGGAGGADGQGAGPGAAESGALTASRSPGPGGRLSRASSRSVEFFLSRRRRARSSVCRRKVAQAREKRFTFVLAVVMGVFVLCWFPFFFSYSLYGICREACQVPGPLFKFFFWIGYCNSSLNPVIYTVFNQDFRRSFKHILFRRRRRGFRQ

[2] = biological target: T2, 5-hydroxytryptamine receptor 1A (Homo sapiens, UniProt P08908); type: functional, cell-based
T2 sequence (P08908 whole entry): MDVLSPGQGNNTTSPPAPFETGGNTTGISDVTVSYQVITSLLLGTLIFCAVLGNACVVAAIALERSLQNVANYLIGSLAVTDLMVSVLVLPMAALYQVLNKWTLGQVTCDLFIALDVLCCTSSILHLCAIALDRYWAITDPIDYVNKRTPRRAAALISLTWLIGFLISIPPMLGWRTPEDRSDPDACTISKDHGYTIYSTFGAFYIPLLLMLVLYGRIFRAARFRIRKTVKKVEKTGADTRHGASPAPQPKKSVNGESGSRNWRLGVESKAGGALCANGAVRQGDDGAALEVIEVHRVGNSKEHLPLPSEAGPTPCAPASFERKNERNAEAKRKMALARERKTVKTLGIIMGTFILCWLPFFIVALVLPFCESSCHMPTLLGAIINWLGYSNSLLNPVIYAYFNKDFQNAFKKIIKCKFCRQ

Vasopressin V2 receptor = Vasopressin V2 receptor (Homo sapiens, UniProt P30518)
[3] = biological target: Sodium-dependent dopamine transporter (Homo sapiens, UniProt Q01959)
[4] = biological target: Beta-1 adrenergic receptor (Homo sapiens, UniProt P08588); type: functional
[5] = biological target: T3, 5-hydroxytryptamine receptor 2C (Homo sapiens, UniProt P28335)
T3 sequence (P28335 whole entry): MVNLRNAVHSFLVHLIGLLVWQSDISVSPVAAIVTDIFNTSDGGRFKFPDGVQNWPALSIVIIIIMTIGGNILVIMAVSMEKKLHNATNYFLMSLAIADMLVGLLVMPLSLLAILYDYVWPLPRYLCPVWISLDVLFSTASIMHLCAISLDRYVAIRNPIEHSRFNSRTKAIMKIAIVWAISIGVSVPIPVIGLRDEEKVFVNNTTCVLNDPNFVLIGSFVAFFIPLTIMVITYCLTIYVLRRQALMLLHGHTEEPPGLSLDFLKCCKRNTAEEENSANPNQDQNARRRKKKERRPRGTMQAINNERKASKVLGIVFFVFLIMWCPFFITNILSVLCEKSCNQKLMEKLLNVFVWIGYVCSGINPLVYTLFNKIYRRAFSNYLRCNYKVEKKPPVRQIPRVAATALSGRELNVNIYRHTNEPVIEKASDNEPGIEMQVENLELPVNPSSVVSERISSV

Motilin receptor = Motilin receptor (Homo sapiens, UniProt O43193)
Estrogen receptor = biological target: T4, Estrogen receptor (Homo sapiens, UniProt P03372)
T4 sequence (P03372 whole entry): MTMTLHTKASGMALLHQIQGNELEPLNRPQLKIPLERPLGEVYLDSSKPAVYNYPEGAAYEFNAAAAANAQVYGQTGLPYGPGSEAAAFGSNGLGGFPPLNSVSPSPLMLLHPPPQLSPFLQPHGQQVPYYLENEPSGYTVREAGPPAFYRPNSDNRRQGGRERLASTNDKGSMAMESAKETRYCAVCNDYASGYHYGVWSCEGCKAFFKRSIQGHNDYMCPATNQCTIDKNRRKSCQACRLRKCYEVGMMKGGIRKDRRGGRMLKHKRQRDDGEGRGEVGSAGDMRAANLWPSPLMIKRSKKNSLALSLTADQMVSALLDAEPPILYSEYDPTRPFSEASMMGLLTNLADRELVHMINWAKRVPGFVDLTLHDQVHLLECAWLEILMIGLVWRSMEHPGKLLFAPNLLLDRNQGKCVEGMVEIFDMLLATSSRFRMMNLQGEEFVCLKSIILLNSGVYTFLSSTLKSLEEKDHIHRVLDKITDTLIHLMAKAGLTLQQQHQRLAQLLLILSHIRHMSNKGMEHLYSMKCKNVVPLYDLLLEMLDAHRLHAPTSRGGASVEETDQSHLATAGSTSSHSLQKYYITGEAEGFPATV
Note: assay procedure not described here.

Chain of Sodium-dependent dopamine transporter (Q01959 whole entry): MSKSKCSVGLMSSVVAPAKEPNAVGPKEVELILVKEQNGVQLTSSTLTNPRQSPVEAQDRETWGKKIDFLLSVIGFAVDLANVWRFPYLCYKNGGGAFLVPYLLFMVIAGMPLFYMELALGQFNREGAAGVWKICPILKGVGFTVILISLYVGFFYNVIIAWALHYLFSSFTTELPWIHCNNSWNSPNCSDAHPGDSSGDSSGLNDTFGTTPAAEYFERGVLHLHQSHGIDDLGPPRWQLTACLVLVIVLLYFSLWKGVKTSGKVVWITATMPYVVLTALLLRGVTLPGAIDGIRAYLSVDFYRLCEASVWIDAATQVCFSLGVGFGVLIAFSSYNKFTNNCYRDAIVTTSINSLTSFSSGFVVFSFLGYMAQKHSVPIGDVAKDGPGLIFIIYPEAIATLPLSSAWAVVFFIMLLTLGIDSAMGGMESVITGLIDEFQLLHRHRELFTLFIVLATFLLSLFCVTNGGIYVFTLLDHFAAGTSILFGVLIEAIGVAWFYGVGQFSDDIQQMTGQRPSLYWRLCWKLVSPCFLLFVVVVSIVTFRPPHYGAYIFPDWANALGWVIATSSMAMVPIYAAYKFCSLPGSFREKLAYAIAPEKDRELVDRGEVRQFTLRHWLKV
Chain of Motilin receptor (O43193 whole entry): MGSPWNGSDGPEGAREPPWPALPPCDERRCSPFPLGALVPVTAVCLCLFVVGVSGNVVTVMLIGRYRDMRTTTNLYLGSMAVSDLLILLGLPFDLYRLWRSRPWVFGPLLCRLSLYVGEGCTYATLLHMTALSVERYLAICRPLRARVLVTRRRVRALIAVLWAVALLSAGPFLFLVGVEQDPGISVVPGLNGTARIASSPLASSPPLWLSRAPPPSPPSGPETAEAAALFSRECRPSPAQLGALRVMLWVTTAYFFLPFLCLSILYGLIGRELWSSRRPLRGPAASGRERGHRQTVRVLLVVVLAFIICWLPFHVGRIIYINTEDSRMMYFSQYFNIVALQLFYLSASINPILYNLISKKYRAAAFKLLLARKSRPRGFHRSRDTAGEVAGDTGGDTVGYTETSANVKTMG
Chain of Beta-1 adrenergic receptor (P08588 whole entry): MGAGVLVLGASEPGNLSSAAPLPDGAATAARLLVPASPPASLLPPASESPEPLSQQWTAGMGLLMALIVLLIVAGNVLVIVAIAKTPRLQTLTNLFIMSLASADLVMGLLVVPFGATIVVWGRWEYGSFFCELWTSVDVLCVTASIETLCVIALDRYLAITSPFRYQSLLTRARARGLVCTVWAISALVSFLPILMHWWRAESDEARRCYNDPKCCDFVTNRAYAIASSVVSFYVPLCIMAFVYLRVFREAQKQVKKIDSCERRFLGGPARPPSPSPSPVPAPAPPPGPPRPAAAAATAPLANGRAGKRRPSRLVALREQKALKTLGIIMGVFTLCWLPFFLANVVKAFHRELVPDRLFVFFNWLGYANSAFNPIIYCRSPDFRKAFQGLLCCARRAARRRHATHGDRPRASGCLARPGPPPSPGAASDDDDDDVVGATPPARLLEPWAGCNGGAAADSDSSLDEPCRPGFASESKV
Chain of Vasopressin V2 receptor (P30518 whole entry): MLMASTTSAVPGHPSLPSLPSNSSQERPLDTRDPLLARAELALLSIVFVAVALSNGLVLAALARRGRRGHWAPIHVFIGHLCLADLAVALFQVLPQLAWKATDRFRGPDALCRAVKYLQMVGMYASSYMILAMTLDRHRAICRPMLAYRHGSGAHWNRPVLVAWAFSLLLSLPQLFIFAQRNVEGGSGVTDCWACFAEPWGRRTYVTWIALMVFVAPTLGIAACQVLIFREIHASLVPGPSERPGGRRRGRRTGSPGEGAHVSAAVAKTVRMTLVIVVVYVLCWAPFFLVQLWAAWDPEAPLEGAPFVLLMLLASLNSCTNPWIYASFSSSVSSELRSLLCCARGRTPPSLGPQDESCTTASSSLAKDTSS

Compound | AC50 [1] [µM] | AC50 [2] [µM] | AC50 (Vasopressin V2 receptor) [µM] | AC50 [3] [µM] | AC50 [4] [µM] | AC50 [5] [µM] | AC50 (Motilin receptor) [µM] | AC50 (Estrogen receptor) [µM]
C[N+]1(C)CCC(=C(c2ccccc2)c2ccccc2)CC1 | > 10 | > 10 | > 30 | > 10 | > 10 | > 30 | > 30 | 
C[N+](C)(C)CCOP(=O)([O-])OC[C@H](O)CO | > 30 | > 30 | > 30 | > 30 | > 30 | > 30 | > 30 | > 30
CN(C)Cc1nnc2n1-c1ccc(Cl)cc1C(c1ccccc1)=NC2 [ADINAZOLAM] | > 10 | > 10 | > 10 | > 10 | > 10 | > 30 | > 10 | > 10
CN(C)C/C=C/C(=O)Nc1cc2c(Nc3ccc(F)c(Cl)c3)ncnc2cc1O[C@H]1CCOC1 [AFATINIB] | > 30 | > 30 | > 30 | 23.2 | > 30 | > 30 | > 30 | > 30
Cc1ccccc1-n1c(CF)nc2ccc(N)cc2c1=O [AFLOQUALONE] | > 10 | > 10 | > 30 | > 30 | > 30 | > 30 | > 30 | 
CCC1(c2ccc(N)cc2)CCC(=O)NC1=O (stereo not given) [AMINOGLUTETHIMIDE] | > 30 |  | > 30 | > 30 | > 30 | > 30 | > 30 | 
CC1=C(C(=O)OC(C)C)C(c2cccc([N+](=O)[O-])c2)C(C(=O)OC2CN(C(c3ccccc3)c3ccccc3)C2)=C(N)N1 (stereo not given) [AZELNIDIPINE] | 13 |  | > 30 | 26 | 27 | > 30 | 16 | > 3
O=C(/C=C/c1cccc(S(=O)(=O)Nc2ccccc2)c1)NO [BELINOSTAT] | > 10 |  | > 30 | > 10 | > 10 | > 30 | > 10 | > 30
CC(Cc1cccc(C(F)(F)F)c1)NCCOC(=O)c1ccccc1 (stereo not given) [BENFLUOREX] | 2.41 |  | > 30 | 15 | 5.7 | 3.5 | > 30 | 
CCOC(=O)c1ccc(N)cc1 [BENZOCAINE] | > 10 | > 10 | > 10 | > 10 | > 10 | > 30 | > 10 | 
CC(C)(Oc1ccc(CCNC(=O)c2ccc(Cl)cc2)cc1)C(=O)O [BEZAFIBRATE] | > 10 | > 30 | > 10 | > 10 | > 10 | > 30 | > 10 | > 10
NC[C@H]1CC[C@H](C(=O)Oc2ccc(CCC(=O)O)cc2)CC1 [CETRAXATE] | > 30 | > 30 |  |  |  | > 30 |  | 
C/C=C(/C(=C/C)c1ccc(O)cc1)c1ccc(O)cc1 [DIENESTROL] | > 10 | > 10 | > 10 | > 30 | > 10 | > 30 | > 10 | 0.0035
CN[C@]1(c2ccccc2Cl)CCCCC1=O [ESKETAMINE] | > 30 |  | > 30 | > 30 | > 30 | > 30 | > 30 | > 30
COc1ccc([C@@H]2CC(=O)c3c(O)cc(O)cc3O2)cc1O [HESPERETIN] | > 10 | > 10 | > 10 | > 10 | > 10 | > 30 | > 10 | > 10
CNCCc1ccc(OC(=O)C(C)C)c(OC(=O)C(C)C)c1 [IBOPAMINE] | 8.4 | > 30 | > 30 | > 30 | > 30 | > 30 | > 30 | > 30
CN(C)CCCN1c2ccccc2CCc2ccccc21 [IMIPRAMINE] | 2.1 | > 10 | > 30 |  | > 10 | 0.13 | > 10 | 
CCOC(=O)C1=C(C)NC(C)=C(C(=O)OCC)C1c1ccccc1/C=C/C(=O)OC(C)(C)C [LACIDIPINE] | > 30 |  | > 30 | > 30 | > 30 | > 30 | > 30 | > 30
Cc1ccccc1N1C(=O)c2cc(S(N)(=O)=O)c(Cl)cc2NC1C (stereo not given) [METOLAZONE] | > 10 | > 10 | > 10 | > 10 | > 10 | > 30 | > 10 | 
O=C1c2cccc3c2[C@H](CCC3)CN1[C@@H]1CN2CCC1CC2 [PALONOSETRON] | 4 |  | > 30 | > 30 | > 30 | > 30 | > 30 | > 30
Cc1cccc(C)c1NC(=O)CC12CCCN1CCC2 [PILSICAINIDE] | > 30 |  | > 30 | > 30 | > 30 | > 30 | > 30 | > 30
CC(C)c1cccc(C(C)C)c1O [PROPOFOL] | > 30 | > 30 |  | > 30 | > 30 | > 30 | > 30 | 
CCCN1CC(NS(=O)(=O)N(CC)CC)CC2Cc3c(O)cccc3CC21 (stereo not given) [QUINAGOLIDE] | 11 |  | > 30 | > 30 | > 30 | > 30 | > 30 | > 30
C[C@]12CCC(=O)C[C@@H]1CC[C@@H]1[C@@H]2CC[C@]2(C)[C@@H](O)CC[C@@H]12 [STANOLONE] | > 30 |  | > 30 | > 30 | > 30 | > 30 | > 30 | 
O=C1OC(OC(=O)c2cccnc2Nc2cccc(C(F)(F)F)c2)c2ccccc21 (stereo not given) [TALNIFLUMATE] | > 30 | > 30 | > 30 | > 30 | > 30 | > 30 | > 30 | 
O=S1(=O)CCN(CN2CCS(=O)(=O)NC2)CN1 [TAUROLIDINE] | > 30 |  |  | > 30 | > 30 | > 30 |  | > 30
CCOC(=O)c1c(CSc2ccccc2)n(C)c2cc(Br)c(O)c(CN(C)C)c12 [UMIFENOVIR] | 12 |  | > 30 | 9.1 | > 30 | 2.6 | 3.7 | > 30
